Measured values reported in patent US6610646B2, “Enhanced duration fragrance delivery system having a non-distorted initial fragrance impression” (The Procter & Gamble Company, priority 2000, dated 2003).

Key:
[1] = Olfactory Intensity grading of solutions in DPG by expert panel, Initial Determination; set-up: species or system human
Source text: (§1) To determine the ODC and the OSC for a given fragrance raw material f, an Olfactory Intensity vs. Log Concentration curve is constructed. This process is comprised of both an initial and a final determination.
Olfactory Intensity is graded for each solution from 0 to 100 by a panel of at least three expert graders composed of average artisans of ordinary skill in perfume formulation. The Olfactory Intensity at any concentration is taken to be the mean of the individual grades at that concentration. Table I below gives Olfactory Intensity grades determined in this manner for two common fragrance raw materials at three different weight percent concentration in DPG.
The Initial Determination gives the general shape of the curve and is used to establish which of the nine concentrations (Entries 1-9 in Table II) will be used for the starting fragrance raw material concentration, [f]start, and which will be used for the upper concentration limit, [f]limit, in the Final Determination. The highest concentration of fragrance raw material that gives an Olfactory Intensity below 5 is chosen as the starting concentration for the Final Determination. In the example given, [f]start is 0.00001 wt. % of 2,6-dimethyl-5-heptenal in DPG (Table II, Entry 3). The lowest concentration of fragrance raw material above [f]start for which the Olfactory Intensity of the two immediately adjacent concentrations are separated by less than 5 is chosen as the upper concentration limit for the Final Determination. In the example given, [f]limit is 0.10 wt. % of 2,6-dimethyl-5-heptenal in DPG (Table II, Entry 7).

[2] = Olfactory Intensity grading of solutions in DPG by expert panel, Final Determination (ODC and OSC); set-up: species or system human; conditions: for Olfactory Intensity: Final Determination, scale 0 to 100
Source text: Odor Detection Concentration, vD: The odor detection concentration (ODC) is defined herein as the lowest weight percent concentration of a fragrance raw material dissolved in dipropylene glycol (DPG) at which the average artisan of ordinary skill in perfume formulation can detect a fragrance raw material olfactory intensity of 10 on a scale of intensity ranging from 0 to 100.
Odor Saturation Concentration, vS: The odor saturation concentration (OSC) is defined herein as the amount of fragrance raw material, expressed as weight percent dissolved in DPG, beyond which no further odor impression is provided as measured by the average artisan of ordinary skill in perfume formulation.
as §1
Final Determination: In constructing the final curve, multiples of said starting concentration are used. The concentrations used are the starting concentration, [f]start=1c, and the multiples 5c, 10c, 20c, 40c, 80c, 160c, 320c, 640c, 1280c, 2560c, 5120c, 1024c, 2048c, 4096c, etc., up to and including the point where the multiple first surpasses [f]limit. Olfactory Intensity is graded for each solution from 0 to 100 by a panel of at least three expert graders composed of average artisans of ordinary skill in perfume formulation. The Olfactory Intensity at any concentration is taken to be the mean of the individual grades at that concentration.
The Final Determination yields values for the ODC and the OSC. The odor detection concentration (ODC) is defined herein as the lowest weight percent concentration, above [f]start, of a fragrance raw material dissolved in dipropylene glycol (DPG) at which the fragrance raw material olfactory intensity is 10 on a scale of intensity ranging from 0 to 100. The determination may require linear interpolation between two consecutive concentrations where one has an olfactory intensity below 10 and the other above 10. For 2,6-dimethyl-5-heptenal, the ODC as determined above is 0.0001 wt. % (Table III, Entry 3). The odor saturation concentration (OSC) is defined as the lowest concentration of a fragrance raw material above the ODC for which the Olfactory Intensity of the two immediately adjacent concentrations are separated by less than 5. For 2,6-dimethyl-5-heptenal, the OSC as determined above is 0.0256 wt. % (Table III, Entry 11).

[3] = 0.0005 wt. % in DPG, scale 0 to 100, mean of panel grades

In the case of CC(C)=CCCC(C)C=O (stereo not drawn) [2,6-dimethyl-5-heptenal], the “Olfactory Intensity” value ([1]; Initial Determination, 0.0000001 wt. % in DPG, scale 0 to 100) is reported as 0, the “Olfactory Intensity” value ([1]; Initial Determination, 0.000001 wt. % in DPG, scale 0 to 100) is reported as 0 and the “Olfactory Intensity” value ([1]; Initial Determination, 0.00001 wt. % in DPG, scale 0 to 100) is reported as 0. For the same molecule, the “Olfactory Intensity” value ([1]; Initial Determination, 0.0001 wt. % in DPG, scale 0 to 100) was 10, the “Olfactory Intensity” value ([1]; Initial Determination, 0.001 wt. % in DPG, scale 0 to 100) was 55 and the “Olfactory Intensity” value ([1]; Initial Determination, 0.01 wt. % in DPG, scale 0 to 100) was 81. The “Olfactory Intensity” value ([1]; Initial Determination, 0.1 wt. % in DPG, scale 0 to 100) was 83, the “Olfactory Intensity” value ([1]; Initial Determination, 1.0 wt. % in DPG, scale 0 to 100) was 84 and the “Olfactory Intensity” value ([1]; Initial Determination, 10.0 wt. % in DPG, scale 0 to 100) was 84. The “Olfactory Intensity” value ([2]; 0.00001 wt. % in DPG) was 0, the “Olfactory Intensity” value ([2]; 0.00005 wt. % in DPG) was 6 and the “Olfactory Intensity” value ([2]; 0.0001 wt. % in DPG) was 10. The “Olfactory Intensity” value ([2]; 0.0002 wt. % in DPG) was 19, the “Olfactory Intensity” value ([2]; 0.0004 wt. % in DPG) was 33 and the “Olfactory Intensity” value ([2]; 0.0008 wt. % in DPG) was 50. For the same molecule, the “Olfactory Intensity” value ([2]; 0.0016 wt. % in DPG) was 64, the “Olfactory Intensity” value ([2]; 0.0032 wt. % in DPG) was 74 and the “Olfactory Intensity” value ([2]; 0.0064 wt. % in DPG) was 78. For the same molecule, the “Olfactory Intensity” value ([2]; 0.0128 wt. % in DPG) was 81, the “Olfactory Intensity” value ([2]; 0.0256 wt. % in DPG) was 83 and the “Olfactory Intensity” value ([2]; 0.0512 wt. % in DPG) was 83. For the same molecule, the “Olfactory Intensity” value ([2]; 0.1024 wt. % in DPG) was 84, the “odor saturation concentration (OSC)” value ([2]; lowest concentration in DPG above the ODC where intensities of the two adjacent concentrations differ by less than 5) was 0.0256 wt. % and the “odor detection concentration (ODC)” value ([2]; lowest concentration in DPG with olfactory intensity 10 on a scale 0 to 100) was 0.0001 wt. %.

For CC1=CC(C)C(C=O)CC1 (stereo not drawn) [2,4-dimethyl-3-cyclohexene-1-carboxaldehyde], the “Olfactory Intensity” value [1, 3] was 30, the “Olfactory Intensity” value ([1]; 0.001 wt. % in DPG, scale 0 to 100, mean of panel grades) was 50 and the “Olfactory Intensity” value ([1]; 0.003 wt. % in DPG, scale 0 to 100, mean of panel grades) was 70.

For CC=CC(=O)C1C(C)C=CCC1(C)C (stereo not drawn) [1-(2,6,6-trimethyl-3-cyclohexen-1-yl)-2-buten-1-one], the “Olfactory Intensity” value ([1]; 0.00004 wt. % in DPG, scale 0 to 100, mean of panel grades) was 30, the “Olfactory Intensity” value ([1]; 0.00009 wt. % in DPG, scale 0 to 100, mean of panel grades) was 50 and the “Olfactory Intensity” value [1, 3] was 70.
